{"source": "patent US20140287925A1", "about": "“SOLUTIONS OF CIPC AND OF A TERPENE OR OF A TERPENE OIL AND THEIR USES FOR THE ANTIGERMINATIVE TREATMENT OF BULBS OR TUBERS” (priority 2003, published 2014)", "key": {"[1]": {"assay": "Solubility of CIPC (maximum concentration obtained in solvents)", "assay_type": "physicochemical", "details": "in terpenes and/or terpene oils, clear solutions, at room temperature or even as low as 0° C.", "protocol": "Moreover, CIPC is sparingly soluble in conventional solvents, and maximum CIPC concentrations of the order of 30% (weight/volume) are generally obtained. At best, concentrations of the order of about 54% at 180° C. have been obtained. This low solubility therefore implies the use of large quantities of solvent and/or of formulation in order to obtain the required quantities of active formula. Now, it is sought in general to limit the use of these solvents because of their own toxicity and/or of the danger involved in using them, in particular because of their low boiling points which cause high risks of inflammability.\nIt has now been discovered, and that is one of the subjects of the present invention, that terpenes and/or terpene oils have a high CIPC-dissolving power. In particular, the use of such terpenes and/or terpene oils makes it possible to obtain clear CIPC solutions and to reach CIPC concentrations greater than 50% by weight of CIPC relative to the total volume of the solution, at room temperature, or even temperatures as low as 0° C. Consequently, the formulations of the present invention make it possible to limit the quantity of formulated product to be used."}, "[2]": {"details": "cited from earlier work"}}}
{"molecule": "CC(C)OC(=O)Nc1cccc(Cl)c1", "note": "[CIPC, isopropyl (3-chlorophenyl)carbamate]", "values": [{"measurement": "CIPC concentration reached", "setting": "[1]", "value": "greater than 50 % by weight of CIPC relative to the total volume of the solution"}, {"measurement": "CIPC concentration obtained at best", "setting": "[2]; conventional solvents, at 180° C.", "value": "about 54%"}, {"measurement": "maximum CIPC concentration", "setting": "[2]; in conventional solvents", "value": "~30 % (weight/volume)"}]}
